Values of other authors as cited in US9695323B2, “UV curable solventless antimicrobial compositions” (Becton, Dickinson and Company, priority 2013, dated 2017).

System: Staphylococcus epidermidis

CC(=O)O.CC(=O)O.NC(=N\CCCCCC/N=C(N)/N=C(\N)Nc1ccc(Cl)cc1)/N=C(\N)Nc1ccc(Cl)cc1 [chlorhexidine diacetate]
minimum inhibitory concentration: 2 µg/mL
